The data set is described as follows: in vitro. The settings on record: human, hela cells, % viability.

Usually viability stands for a read-out of living cells in per cent, often relative to untreated cells.

Consider `CCOC(=O)c1c(NC(=O)NCc2ccncc2)sc2c1CCC2` [CBK307591], for which the viability at 28.5 h, 10 µM turned out to be 81.6%. The value for `c1cnc(NCc2cc3n(n2)CCN(CC2CCCCC2)C3)cn1` [CBK307592] was 80%; that for `CC(C)n1cc(C(=O)NCc2cccnc2N(C)C2CCCCC2)cn1` [CBK307593] was 105%; that for `Cc1c(C)n(Cc2ccco2)c2ncnc(N3CCC(C(=O)O)CC3)c12` [CBK307599] was 99.1%. As for `CCCCc1ccc(-c2nccn2CC2CN(C(C)=O)CCO2)s1` (stereo not shown) [CBK307600], the figure is 110%; as for `Cc1nc(N2CCOCC2)cc(N2CCN(C(=O)C3CCCC3)CC2)n1` [CBK307602], 87.5%; as for `Cc1ccc2c(c1)C(NC(=O)C1CCN(S(C)(=O)=O)CC1)CC(C)(C)O2` (stereo not shown) [CBK307604], 109%. In the case of `COCC1(C(=O)N2CC(=O)N(c3ccc(C)cc3)CC2C)CCC1` (stereo not shown) [CBK307606], the viability at 28.5 h, 10 µM was 89.1%. Regarding `CCCNC(=O)c1ccc(NC(=O)NC(CC)c2ccnn2C)c(C)c1` (stereo not shown) [CBK307608], the viability at 28.5 h, 10 µM worked out at 104%. Turning to `Cc1cc(C)n(Cc2cc(C(=O)NCC(C)Oc3cccnc3)n[nH]2)n1` (stereo not shown) [CBK307609], the viability at 28.5 h, 10 µM worked out at 85.9%. The value for `COCCNC(=O)c1cc2n(n1)C(C(F)(F)F)CC(c1ccccc1)N2` (stereo not shown) [CBK307610] was 114%; that for `CSc1ncc(CNC(=O)C2CCOc3ccccc3C2)n1C` (stereo not shown) [CBK307611] was 82.5%; that for `Cc1scnc1CN1CCn2nc(C(O)Cc3ccccc3)cc2C1` (stereo not shown) [CBK307612] was 90.9%. In the case of `Cc1cc(C)n(-c2ccc3nnc(CCC(=O)O)n3n2)n1` [CBK307616], the viability at 28.5 h, 10 µM worked out at 97%.

In the case of `CCCc1cc(C(=O)N2CCNCC2C(=O)N2CCN(C)CC2)ccn1` (stereo not shown) [CBK307619], the viability at 28.5 h, 10 µM amounted to 97.5%. In the case of `Cc1c(-c2cccc(C(=O)N(CCO)C3CCS(=O)(=O)C3)c2)cnn1C` (stereo not shown) [CBK307621], the viability at 28.5 h, 10 µM came to 86.5%.

For `Cc1nc(NC(=O)Cn2nc(N3CCSCC3)ccc2=O)sc1C` [CBK307622], the viability at 28.5 h, 10 µM was found to be 98.3%.

With `O=C(Cn1nc(N2CCSCC2)ccc1=O)Nc1ccccc1` [CBK307623], the viability at 28.5 h, 10 µM turned out to be 97.2%. As for `Cc1cc(OCC(=O)N2CCNC(=O)C2)c2c(C)c(C)c(=O)oc2c1` [CBK307624], the figure is 94.7%.

As for `CC(=O)c1cccc(NC(=O)Cn2nc(N3CCSCC3)ccc2=O)c1` [CBK307625], the viability at 28.5 h, 10 µM is 102%. As for `CCOC(=O)c1cnc2ccc(Cl)cc2c1N1CCOCC1` [CBK307627], the figure is 99.2%; as for `Cc1cc(C)n(-c2ccc3nnc(CCCC(=O)O)n3n2)n1` [CBK307630], 87.1%. Consider `COc1ccc2c(c1)C(NC(=O)C1CCCN(C)C1)CC(C)(C)O2` (stereo not shown) [CBK307631], for which the viability at 28.5 h, 10 µM turned out to be 113%. `CCOc1ccc(NC(=O)N(CCO)Cc2nccn2C)cc1C#N` [CBK307634]: the viability at 28.5 h, 10 µM worked out at 82.6%. As for `COCCN1CCN(C(=O)NCCc2c(C)[nH]c3ccc(Cl)cc23)CC1` [CBK307637], the figure is 85%; as for `CCn1nc(CO)c2c1CCN(CC(=O)NCc1cccs1)C2` [CBK307638], 92.8%; as for `Cc1cccn2c(CN3CCC(O)CC3)c(C(=O)N3CCCCC3)nc12` [CBK307639], 104%. As for `CN1CCN(CC2(Cn3ccnc3-c3ccc(C(=O)O)cc3)CC2)CC1` [CBK307641], the viability at 28.5 h, 10 µM was found to be 75.1%. As for `CSc1cccc(CN2C[C@H]3CN(C(=O)C4CCC4)C[C@@]3(C(=O)O)C2)c1` [CBK307645], the figure is 88.4%; as for `COc1cncc(C(NC(=O)c2ccc3c(c2)CCC3)[C@H]2C[C@H](O)C2)c1` (stereo partly shown) [CBK307646], 105%; as for `Cc1cc(C)n(CC(=O)N[C@H]2CC[C@H]2N)c(=O)n1` [CBK307647], 91.9%. Regarding `Cc1ncccc1OC1(C(=O)NCc2cn3c(n2)SCC3)CCNCC1` [CBK307649], the viability at 28.5 h, 10 µM is 103%.

With `Cc1nc(CCNC(=O)N(Cc2cnn(C)c2)C2CC2)nc2c1CCC2` [CBK307650], the viability at 28.5 h, 10 µM was determined as 86.1%. In the case of `Cc1cc(=O)[nH]c(CCNc2cc([C@H]3C[C@@H](N)C3)nc(C3CC3)n2)n1` [CBK307651], the viability at 28.5 h, 10 µM worked out at 103%. Turning to `CN1CCCCCC1c1nc(-c2ccccc2)nn1CCCO` (stereo not shown) [CBK307653], the viability at 28.5 h, 10 µM came out at 95.9%.

Turning to `CCOC(=O)C1(Cc2ccc(F)cc2F)CCCN(S(=O)(=O)CC)C1` (stereo not shown) [CBK307655], the viability at 28.5 h, 10 µM stood at 92.6%. As for `CCCN1CC2(CCN(Cc3nccn3C)CC2)CC1C(=O)O` (stereo not shown) [CBK307658], the viability at 28.5 h, 10 µM stood at 83.2%. The value for `Cc1ccc(-c2noc(C(C)NC(=O)C3(Cn4ccnc4)CC3)n2)cc1` (stereo not shown) [CBK307661] was 113%. As for `CCCn1cnnc1CN(C)C(=O)NCCc1nc2ccccc2s1` [CBK307663], the figure is 98.2%; as for `CCCN1CC(NS(=O)(=O)c2ccc3oc(=O)n(C)c3c2)CC1=O` (stereo not shown) [CBK307664], 92.6%. Turning to `CC(c1ccncn1)N(C)C(=O)NCc1cccc(CN(C)C)c1` (stereo not shown) [CBK307667], the viability at 28.5 h, 10 µM was 89.9%. `CCc1nc(CCn2ccc3nc(OC)c(C#N)cc3c2=O)no1` [CBK307668]: the viability at 28.5 h, 10 µM turned out to be 94.1%. As to `Cn1ncnc1CCNC(=O)N1CCCN(Cc2cccs2)CC1` [CBK307670], the viability at 28.5 h, 10 µM amounted to 95.8%. For the compound `CN(CC1COCCO1)C(=O)c1cc(Cn2ccc3ccccc32)[nH]n1` (stereo not shown) [CBK307673], the viability at 28.5 h, 10 µM stood at 111%.

`Cc1nc(C2CC(O)C2)cc(N2CCC(C(=O)N3CCOCC3)CC2)n1` (stereo not shown) [CBK307675]: the viability at 28.5 h, 10 µM is 102%. As for `COc1nccc(N2CCN(C)C3(CCNC(=O)CC3)C2)c1C#N` (stereo not shown) [CBK307676], the figure is 116%. Regarding `CSc1ncc(C(=O)N2CCN3CCN(C)CC3C2)c(=O)[nH]1` (stereo not shown) [CBK307677], the viability at 28.5 h, 10 µM amounted to 104%. For `O=c1cc(N2CCCCC2)cnn1Cc1nccs1` [CBK307678], the viability at 28.5 h, 10 µM was 87.4%. The value for `Cc1c(C(=O)NC2CCN(c3ncccc3C#N)CC2)ccn1C` [CBK307681] was 103%; that for `COCCNc1cc(-c2cccc(F)c2C(N)=O)c2cc[nH]c2n1` [CBK307682] was 94.2%. The value for `Cc1nc2cc(OCc3nc(C(=O)N(CCO)CCO)co3)ccc2s1` [CBK307684] was 89.9%; that for `COc1ccc(Cc2nc(C3CC3)n(CC(F)(F)F)n2)cc1` [CBK307686] was 94.9%. For the compound `Cc1ccc2[nH]c(CN3CCC(O)C3)cc(=O)c2c1` (stereo not shown) [CBK307690], the viability at 28.5 h, 10 µM was 91.5%.

As to `Cn1ncc(N2CCC(CNC(=O)COc3cccc(F)c3)C2)cc1=O` (stereo not shown) [CBK307692], the viability at 28.5 h, 10 µM was 87.1%.

As to `Cc1ccc2cc(CN3CCCC(N)CC3)c(N3CCOCC3)nc2c1` (stereo not shown) [CBK307693], the viability at 28.5 h, 10 µM turned out to be 83.5%.

On to `CCn1ccc(C(=O)NC(c2cncc(OC)c2)[C@H]2C[C@@H](O)C2)cc1=O` (stereo partly shown) [CBK307696], for which the viability at 28.5 h, 10 µM is 110%. As for `COCCn1c(CO)nnc1[C@H]1C[C@@H](NC(=O)c2cc(O)ccc2F)C1` [CBK307698], the figure is 90.4%; as for `Cc1ccc(F)c(CN2CCN(CCO)[C@@H]3CS(=O)(=O)C[C@@H]32)c1` [CBK307699], 93.6%; as for `CC(C)N(C(=O)c1ccccc1-c1cnn2cccnc12)C(C)C` [CBK307701], 85.4%. Turning to `CNc1ncc(CN(C)C(=O)Cn2nc(C)c3ccccc3c2=O)cn1` [CBK307704], the viability at 28.5 h, 10 µM is 85.5%. With `COCCN(CCOC)C(=O)Nc1ccc(F)c(NC(C)=O)c1` [CBK307705], the viability at 28.5 h, 10 µM amounted to 98.2%. For `CCOCc1nc2c(c(NCCn3cccn3)n1)CCN(C(C)=O)CC2` [CBK307707], the viability at 28.5 h, 10 µM came out at 98.3%.

As for `CCN(Cc1cccc(C(=O)O)c1)Cc1noc(C2CCC2)n1` [CBK307708], the viability at 28.5 h, 10 µM amounted to 102%. On to `Cc1ncsc1CCN(C)C(C)C(=O)Nc1nccs1` (stereo not shown) [CBK307709], for which the viability at 28.5 h, 10 µM turned out to be 109%. The value for `CCC(O)c1nc(CCSC)nn1-c1cc(=O)n(C)c2ccccc12` (stereo not shown) [CBK307711] was 90.5%. With `CC(C)n1cnnc1CN1CCN(c2ccc(C#N)cc2)CC1` [CBK307714], the viability at 28.5 h, 10 µM is 106%. On to `CCS(=O)(=O)CCNC(=O)c1cnc(N2CCCCC2)nc1C` [CBK307715], for which the viability at 28.5 h, 10 µM came to 82.9%. For `Cc1nn(C)c(Cl)c1CN1CCCC(CCC(=O)N2CCN(C)CC2)C1` (stereo not shown) [CBK307716], the viability at 28.5 h, 10 µM amounted to 92.5%.

In the case of `Cc1ccc(OCc2occc2C(=O)N2CCc3[nH]cnc3C2)cc1` [CBK307717], the viability at 28.5 h, 10 µM worked out at 85.6%.

Take `CC(=O)Nc1ccc(CNC(=O)CN2CCCC(c3ncc[nH]3)C2)cc1` (stereo not shown) [CBK307718]: the viability at 28.5 h, 10 µM stood at 96.5%.

Values taken from paper PMC12040169 (PLOS Biology, 2025).
